How the values were obtained:
L-Selectin [1] = molecular target: T1, L-Selectin (Homo sapiens, UniProt P14151); assay: ELISA inhibition of recombinant L-selectin binding to immobilized SLe^x; conditions: mean of 3 determinations, read-out: IC50 Values Against SLe^x, L-Selectin
T1 sequence (P14151 39-372): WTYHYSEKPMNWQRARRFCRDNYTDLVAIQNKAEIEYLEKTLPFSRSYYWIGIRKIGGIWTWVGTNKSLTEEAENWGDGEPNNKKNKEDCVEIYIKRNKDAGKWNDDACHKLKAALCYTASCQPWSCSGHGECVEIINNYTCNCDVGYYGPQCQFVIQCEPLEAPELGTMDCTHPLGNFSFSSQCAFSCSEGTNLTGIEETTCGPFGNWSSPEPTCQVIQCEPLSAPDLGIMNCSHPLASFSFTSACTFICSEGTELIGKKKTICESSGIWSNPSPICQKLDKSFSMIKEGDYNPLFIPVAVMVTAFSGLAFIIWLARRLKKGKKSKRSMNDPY
Experimental: (§1) Relative Inhibitory Properties of Branched Chains Including Neu5Ac and/or GalNAcLe^x Against Recombinant Selectins Binding to Immobilized SLe^x
(§2) ELISA inhibition studies were done as previously reported conditions. Ic50 values against immobilized SLe^x are the mean values of 3 determinations and were calculated according to published methodology.

P-Selectin [2] = molecular target: T2, P-Selectin (Homo sapiens, UniProt P16109); assay: ELISA inhibition of recombinant P-selectin binding to immobilized SLe^x; conditions: for IC50: recombinant selectin, immobilized SLe^x, ELISA, mean of 3 determinations, read-out: IC50 Values Against SLe^x, P-Selectin
T2 sequence (P16109 42-830): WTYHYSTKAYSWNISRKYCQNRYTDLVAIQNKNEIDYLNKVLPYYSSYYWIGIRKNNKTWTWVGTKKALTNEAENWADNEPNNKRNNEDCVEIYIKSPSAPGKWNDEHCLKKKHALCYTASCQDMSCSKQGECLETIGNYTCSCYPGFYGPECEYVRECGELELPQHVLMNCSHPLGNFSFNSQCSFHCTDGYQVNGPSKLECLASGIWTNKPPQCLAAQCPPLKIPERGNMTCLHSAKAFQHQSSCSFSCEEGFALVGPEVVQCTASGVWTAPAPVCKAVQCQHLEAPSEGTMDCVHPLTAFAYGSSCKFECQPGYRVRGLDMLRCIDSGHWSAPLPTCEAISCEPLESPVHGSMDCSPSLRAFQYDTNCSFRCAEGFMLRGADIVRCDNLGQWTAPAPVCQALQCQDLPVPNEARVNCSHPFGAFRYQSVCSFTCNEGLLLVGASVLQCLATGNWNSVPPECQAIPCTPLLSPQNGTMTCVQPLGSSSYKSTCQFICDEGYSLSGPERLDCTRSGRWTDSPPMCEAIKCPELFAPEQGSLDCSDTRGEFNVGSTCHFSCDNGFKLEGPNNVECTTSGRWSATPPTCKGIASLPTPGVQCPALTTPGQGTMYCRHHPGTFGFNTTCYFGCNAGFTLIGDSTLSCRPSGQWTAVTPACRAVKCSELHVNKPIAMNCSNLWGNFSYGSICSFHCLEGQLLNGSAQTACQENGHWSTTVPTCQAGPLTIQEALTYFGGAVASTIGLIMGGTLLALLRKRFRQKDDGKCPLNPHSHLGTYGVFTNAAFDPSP
Experimental: as §1, §2

E-Selectin [3] = molecular target: T3, E-Selectin (Homo sapiens, UniProt P16581); assay: ELISA inhibition of recombinant E-selectin binding to immobilized SLe^x; conditions: mean of 3 determinations, read-out: IC50 Values Against SLe^x, E-Selectin
T3 sequence (P16581 22-610): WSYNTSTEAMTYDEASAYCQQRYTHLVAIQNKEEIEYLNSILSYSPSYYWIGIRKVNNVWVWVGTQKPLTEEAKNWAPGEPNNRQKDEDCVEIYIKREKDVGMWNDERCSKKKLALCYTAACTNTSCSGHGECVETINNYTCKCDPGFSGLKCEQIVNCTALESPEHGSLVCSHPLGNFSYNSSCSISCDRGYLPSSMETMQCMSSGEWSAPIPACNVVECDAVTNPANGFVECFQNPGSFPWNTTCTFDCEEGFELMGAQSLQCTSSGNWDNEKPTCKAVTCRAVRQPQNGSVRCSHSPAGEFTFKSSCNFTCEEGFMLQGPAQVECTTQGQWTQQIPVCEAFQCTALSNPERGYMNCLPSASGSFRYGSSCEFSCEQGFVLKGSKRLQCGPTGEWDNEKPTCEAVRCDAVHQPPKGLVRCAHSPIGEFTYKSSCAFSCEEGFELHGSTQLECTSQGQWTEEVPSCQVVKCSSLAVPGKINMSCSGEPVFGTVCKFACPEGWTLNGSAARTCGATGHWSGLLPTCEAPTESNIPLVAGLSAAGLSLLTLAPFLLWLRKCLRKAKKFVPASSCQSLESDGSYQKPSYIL
Experimental: as §1, §2

P-Selectin [4] = molecular target: T2, P-Selectin; assay: Other studies of binding (unspecified; P-selectin context); conditions: no details given
L-Selectin [5] = molecular target: T1, L-Selectin; conditions: cited from earlier work; for affinity for L-selectin: recent study / inhibition studies of Scudder et al.
E-Selectin [6] = molecular target: T3, E-Selectin; conditions: isolated from human cell produced Protein C; cited from earlier work

Row | Compound | IC50 (L-Selectin [1]) | IC50 (P-Selectin [2]) | IC50 (E-Selectin [3]) | also measured
1 | CO[C@@H]1O[C@H](CO)[C@@H](O[C@@H]2O[C@H](CO)[C@H](O)[C@H](O)[C@H]2NC(C)=O)[C@H](O[C@@H]2O[C@@H](C)[C@@H](O)[C@@H](O)[C@@H]2O)[C@H]1NC(C)=O [Compound 8b] | 300 µM | 400 µM | > 500 µM | –
2 | CO[C@H]1O[C@H](CO[C@@H]2O[C@H](CO)[C@@H](O[C@@H]3O[C@H](CO)[C@H](O)[C@H](O)[C@H]3NC(C)=O)[C@H](O[C@@H]3O[C@@H](C)[C@@H](O)[C@@H](O)[C@@H]3O)[C@H]2NC(C)=O)[C@H](O)[C@H](O[C@@H]2O[C@H](CO)[C@H](O)[C@H](O)[C@H]2O)[C@H]1NC(C)=O [Compound 14, Methyl O-(2-acetamido-2-deoxy-β-D-galactopyranosyl)-(1→4)-O-[(α-L-fucopyranosyl)-(1→3)-O]-(2-acetamido-2-deoxy-β-D-glucopyranosyl)-(1→6)-O-[(β-D-galactopyranosyl)-(1→3)-O]-2-acetamido-2-deoxy-α-D-galactopyranoside] | 300 µM | 400 µM | > 500 µM | –
3 | COC1O[C@H](CO)[C@@H](O[C@@H]2O[C@H](COS(=O)(=O)O)[C@H](O)[C@H](O[C@]3(C(=O)O)C[C@H](O)[C@@H](NC(C)=O)[C@H]([C@H](O)[C@H](O)CO)O3)[C@H]2O)[C@H](O[C@@H]2O[C@@H](C)[C@@H](O)[C@@H](O)[C@@H]2O)[C@H]1NC(C)=O (stereo partly shown) [NeuAcα2→3SE-6 Galβ1→4(Fucα1→3)GlcNAcOMe] | – | – | – | affinity for L-selectin (L-Selectin [5]): lacked a high affinity; ligand quality for L-selectin (L-Selectin [5]; recent study): not a superior ligand
4 | GalNAcβ1→4(Fucα1→3)GlcNAcβ1→Manα1→3/6Manβ1→4GlcNAcβ1→4GlcNAc | – | – | – | inhibition of E-selectin (E-Selectin [6]): potent inhibitor
5 | NeuAcα2→3Galβ1→4(Fucα1→3)SE-3GlcNAcβ1→3Gal | – | – | – | affinity for L-selectin (L-Selectin [5]): lacked a high affinity

The next lines start with results.

Row | IC50 (L-Selectin [1]) | IC50 (P-Selectin [2]) | IC50 (E-Selectin [3]) | Compound | also measured
6 | 105 µM | 85 µM | > 500 µM | CO[C@H]1O[C@H](CO[C@@H]2O[C@H](CO)[C@@H](O[C@@H]3O[C@H](CO)[C@H](O)[C@H](O)[C@H]3NC(C)=O)[C@H](O[C@@H]3O[C@@H](C)[C@@H](O)[C@@H](O)[C@@H]3O)[C@H]2NC(C)=O)[C@H](O)[C@H](O[C@@H]2O[C@H](CO)[C@H](O)[C@H](O[C@]3(C(=O)O)C[C@H](O)[C@@H](NC(C)=O)[C@H]([C@H](O)[C@H](O)CO)O3)[C@H]2O)[C@H]1NC(C)=O [Compound 16] | –
7 | 500 µM | > 500 µM | > 500 µM | CO[C@H]1O[C@H](CO[C@@H]2O[C@H](CO)[C@@H](O[C@@H]3O[C@H](CO)[C@H](O)[C@H](O)[C@H]3NC(C)=O)[C@H](O[C@@H]3O[C@@H](C)[C@@H](O)[C@@H](O)[C@@H]3O)[C@H]2NC(C)=O)[C@H](O)[C@H](O[C@@H]2O[C@H](CO)[C@H](O)[C@H](OS(=O)(=O)O)[C@H]2O)[C@H]1NC(C)=O [Compound 19] | binding in other studies (P-Selectin [4]): even greater binding; binding ability relative to sialyl Lewis^x for P-selectin (P-Selectin [2]; compared with sialyl Lewis^x): about six
8 | 600 µM | – | – | sialyl Lewis^x [reference compound] | –

— patent US5972907A, “Synthetic core 2-like branched structures containing GalNAc-lewis^x and Neu5Acα2-3Galβ1-3GalNAc sequences as novel ligands for selectins” (Health Research, Inc., priority 1997, dated 1999)
